The term Kd denotes a measure of binding affinity in units of concentration. A low value points to tighter binding.

We go through four compounds from paper PMC10388363, “Novel 1,4-Dihydropyridines as Specific Binders and Activators of SIRT3 Impair Cell Viability and Clonogenicity and Downregulate Hypoxia-Induced Targets in Cancer Cells” (Journal of Medicinal Chemistry, 2023).

For test [1], the system named is GDH activity in MDA-MB-231 cells. Put plainly: GDH activity assay in lysates of treated MDA-MB-231 cells. To be noted: 50 μM, 4 h. It counts as cell-based, human. Here is the method: Selected compounds 3a–d were tested in triple-negative breast cancer MDA-MB-231 cells to evaluate their effects on SIRT3 physiological substrates. First, the effect on the activity of GDH (an established SIRT3 substrate activated through deacetylation[60]−[62]) was investigated by a coupled enzyme assay. […] These effects of SIRT3 activators clearly phenocopied those observed in the SIRT3-overexpressing MDA-MB-231 cells (SIRT3^+) (Figure 6).
GDH activity in cells treated or not with the SIRT3 activators 3a–d and the reference compounds 2 and 3 was measured using a GDH activity assay kit (MAK099, Merck) following the manufacturer’s instructions. Briefly, 10^6 cells were lysed in 40 μL of GDH assay buffer and kept for 10 min in ice. Afterward, lysates were centrifuged to collect supernatants. Ten microliters of supernatant were added to 40 μL of GDH buffer and 100 μL of a mix containing GDH assay buffer, developer, and glutamate. The whole mix was transferred into a 96-well plate and incubated at 37 °C for 3 min. Finally, absorbance was read at 450 nm using a GloMax multi detection system (Promega, Milan, Italy). The absorbance of the assay buffer was subtracted from each experimental sample.

The test system of test [2] is HIF-1α, EPAS-1, and CA-IX protein expression in CAL-62. The test is described as follows: Western blot of HIF-1α, EPAS-1 and CA-IX in CAL-62 cells under hypoxia. It is filed as cell-based. Here is the method: (§1) Based on these findings, we decided to assess the ability of the SIRT3 activators 3a–d to impair HIF-1α, EPAS-1, and CA-IX protein expression in CAL-62 (Figure 10A–F) and MDA-MB-231 (Figure 11A–F) cell lines treated with the compounds at 50 μM for 48 h and under hypoxia conditions.
(§2) Breast cancer cell line MDA-MB-231, anaplastic thyroid cancer cell line CAL-62 and human keratinocytes HaCaT were purchased from ATCC and were cultured in RPMI 1640 medium (R0883 Sigma Aldrich-MERCK) (MDA-MB-231 and CAL-62) or DMEM medium (11965092, Gibco) supplemented with 10% fetal bovine serum (Sigma-Aldrich-MERCK, F9665), 2 mM glutamine (G7513; Sigma-Aldrich-MERCK), 100 units/mL penicillin and 0.1 mg/mL streptomycin (P0781; Sigma-Aldrich-MERCK). Adherent cells were detached by Trypsin–EDTA solution (TA049; Sigma-Aldrich-MERCK). Cells were maintained at 37 °C in humidified incubator with 5% CO2. Cells were treated with […] (CoCl2) (Merck; C8661) dissolved in distilled, sterile water for 24 h to induce hypoxia (200 μM). Hypoxic and normoxic cells were also treated with 10/50 μM of the indicated compounds (dissolved in DMSO) for 48 h, maintaining the CoCl2 in the culture medium for hypoxic conditions. SIRT3 inhibitor 3-TYP was dissolved in DMSO and added to a final concentration of 1 μM for 24 and/or 48 h.
(§3) The following antibodies were used in this study: ACTB (Merck; A5316), HIF1-α (Cell Signaling; 14179), HIF2/EPAS-1 (Santa Cruz Biotechnology sc-13596), HXKII (Santa Cruz Biotechnology sc-6521), CAIX (Novus Biotechnology NB100-417), SIRT3 (Cell Signaling; 2627S), MnSOD (Abcam ab13533), MnSOD K68 (Abcam ab137037), MnSOD K122 (Abcam ab214675), peroxidase-conjugated AffiniPure Goat Anti-Rabbit IgG (H + L) (Jackson ImmunoResearch; 111-035-003), and peroxidase-conjugated AffiniPure Goat Anti-Mouse IgG (H + L) (Jackson ImmunoResearch; 115-035-062).
(§4) Treated and untreated cells were collected and centrifuged at 3000 rpm for 5 min. After removing the supernatant, cells were lysed in 70 μL of lysis buffer containing: 50 mM Tris-Cl (Merck; 93352), 250 mM sodium chloride (NaCl, Merck; S7653), 5 mM ethylenediaminetetraacetic acid (EDTA; Merck; E6758), 0.1% Triton X-100 and 0.1 mM dithiothreitol (Merck; D9163) plus 1 mM phenylmethylsulfonyl fluoride (PMSF, Merck; 93482), protease inhibitor cocktail (PI; Merck; P8340), 1 mM sodium orthovanadate (NA3VO4, Merck; S6508), and 10 mM sodium fluoride (NaF, Merck; 201154) (lysis buffer). After 30 min on ice, samples were centrifuged at 13,000 rpm for 10 min at 4 °C, and the supernatants collected. Protein concentration was determined by the Bradford assay (Bio-Rad; 500-0205). The equivalent of 15 or 50 μg of protein was boiled for 5 min, electrophoresed onto denaturing SDS-PAGE gel, and transferred onto a […] nitrocellulose membrane (Bio-Rad; 162-0115). After blocking with 5% milk, membranes were incubated with the appropriate primary antibody overnight. The next day, after three washes with 0.1% Tween 20 (Merck; P9416) in PBS (PBST) for 30 min at rt, membranes were incubated with the appropriate secondary antibody for 1 h at rt. After three more washes in PBST, the detection of the relevant protein was assessed by enhanced chemiluminescence (Lite Ablot TURBO, Euro-Clone; EMP012001). Densitometric analysis of the bands, relative to ACTB, was performed using ImageJ Software v1.51 (NIH, Bethesda, MD, USA).
A general note: Immunoblotting shows a protein as a band on a membrane.

For test [3], the target named is T1, human SIRT3 (Homo sapiens, UniProt Q9NTG7).
T1 construct: pET151D/Topo (Sirt3-114-380 and Sirt5-34-302); His tag (N, cleaved yes); made in house; host or cells: Escherichia coli
T1 sequence (Q9NTG7 114-380): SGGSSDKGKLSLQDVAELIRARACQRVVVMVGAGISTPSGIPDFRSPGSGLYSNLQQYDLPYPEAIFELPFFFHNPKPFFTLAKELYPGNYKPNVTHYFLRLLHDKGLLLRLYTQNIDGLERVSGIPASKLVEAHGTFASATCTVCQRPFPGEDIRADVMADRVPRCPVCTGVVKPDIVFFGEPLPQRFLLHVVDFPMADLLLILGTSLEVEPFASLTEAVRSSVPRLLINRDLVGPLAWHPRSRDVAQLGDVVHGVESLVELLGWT
The test is described as follows: Surface plasmon resonance binding assay, immobilized SIRT3. To be noted: SPR, Scatchard analysis, analytes 5-80 μM. Here is the method: Next, surface plasmon resonance (SPR) experiments were conducted with selected SIRT3 activators 2e and 3a–d to ascertain their biophysical interaction with the human SIRT3 protein. Their parental compounds 2 and 3, together with honokiol, were used as positive controls. The experiments were carried out twice at different concentrations (5, 10, 20, 40, and 80 μM), by injecting the compounds at increasing doses (Figure 5). The resonance units (RU) increase with respect to baseline indicates the formation of the SIRT3/ligand complex, the plateau region represents the steady-state phase of the interaction (RUeq, RU at equilibrium) and the decrease in RU after 180 s represents dissociation of analytes from the immobilized SIRT3 protein after injection of the buffer.
SPR experiments were carried out using a SensiQ Pioneer system (SensiQ, Oklahoma City, OK, USA), essentially as in Genovese et al. 2020[84] and in Battista et al. 2021,[85] with some modifications, as follows.
The sensor chip (COOH5) was chemically activated by a 35 μL injection of a 1:1 mixture of […] (200 mM) and N-hydroxysuccinimide (50 mM) at a flow rate of 5 μL/min. Sirtuin3 (ligand) was immobilized on activated sensor chips via amine coupling. Immobilization was carried out in 20 mM sodium acetate at pH 4.0; unreacted groups were blocked by injecting 1 M ethanolamine hydrochloride (35 μL). Sirtuin3 immobilization level obtained was 1500–4000 RU.
The analytes, dissolved in 100% DMSO at 10 mM concentration, were diluted in buffer 20 mM Hepes, 150 mM NaCl, 0.005% surfactant P20 buffer (HBSP) to a concentration of 200 μM (2% final DMSO concentration), further diluted in HBSP + 2% DMSO (HBSP2%D) and injected on the sensor chip at a constant flow rate (nominal flow rate = 30 μL/min) at the following concentrations: 5, 10, 20, 40, and 80 μM.
The RU increase relative to baseline indicates complex formation (taking place at known analytes concentrations at each moment in the gradient); the plateau region represents the steady-state phase of the interaction (RUeq); and the decrease in RU after 180 s represents dissociation of analytes from the immobilized Sirtiun3 after injection of HBSP2%D. Regeneration procedures are based on two long (2000 and 500 s) injections of buffer, separated by a brief (5 s) injection of 10 mM NaOH.
Control experiments were performed in sensor chips treated as described above in the absence of an immobilized ligand. Kinetic evaluation of the sensorgrams was obtained using the SensiQ Qdat program and full fitting with 1, 2, and 3 sites; Scatchard analysis was used to determine apparent KD values.
In general terms: In SPR one partner is held on a chip, and binding of the other changes the refractive index at the surface.

Test [4] addresses T1, human SIRT3. The arrangement: method as in PMID 36228194. The settings on record: 100 μM; cited from earlier work.
The subject of test [5] is acK68- and acK122-MnSOD in MDA-MB-231 cells. The test is described as follows: Western blot of MnSOD acK68 and acK122 marks in MDA-MB-231 cells. It is filed as cell-based, human. To be noted: MDA-MB-231, negative control SIRT3 inhibitor. How it is done: (§5) K68-MnSOD acetylation promotes a transformation-permissive phenotype, leading to a chemotherapy-resistant breast cancer cell model using cisplatin and doxorubicin.[68] […] The specific SIRT3 inhibitor 3-TYP was utilized as negative control.
as §2, with “Hypoxic and normoxic cells were also treated with 10/50 μM of the indicated compounds (dissolved in DMSO) for 48 h, maintaining the CoCl2 in the culture medium for hypoxic conditions. SIRT3 inhibitor 3-TYP was dissolved in DMSO and added to a final concentration of 1 μM for 24 and/or 48 h.” left out
as §3
(§6) Treated and untreated cells were collected and centrifuged at 3000 rpm for 5 min. […] Protein concentration was determined by the Bradford assay (Bio-Rad; 500-0205). […] After three more washes in PBST, the detection of the relevant protein was assessed by enhanced chemiluminescence (Lite Ablot TURBO, Euro-Clone; EMP012001). […]

Test [6] relates to HIF-1α, EPAS-1, and CA-IX protein expression in MDA-MB-231. Put plainly: Western blot of HIF-1α, EPAS-1 and CA-IX in MDA-MB-231 cells under hypoxia. It counts as cell-based, human. To be noted: MDA-MB-231, hypoxia, negative control SIRT3 inhibitor. Here is the method: as §1, §2, §3, §4
Test [7] deals with acK68- and acK122-MnSOD in CAL-62 cells. The test is described as follows: Western blot of MnSOD acK68 and acK122 marks in CAL-62 cells. It is filed as cell-based. The settings on record: CAL-62, negative control SIRT3 inhibitor. How it is done: as §5
as §2, with “Hypoxic and normoxic cells were also treated with 10/50 μM of the indicated compounds (dissolved in DMSO) for 48 h, maintaining the CoCl2 in the culture medium for hypoxic conditions. SIRT3 inhibitor 3-TYP was dissolved in DMSO and added to a final concentration of 1 μM for 24 and/or 48 h.” left out
as §6

As for `CCOC(=O)C1=CN(C(=O)c2ccc(OC)cc2)C=C(C(=O)OCC)C1c1ccccc1` [Compound 3b, Diethyl 1-(4-methoxybenzoyl)-4-phenyl-1,4-dihydropyridine-3,5-dicarboxylate], in test [1], the “effect on GDH activity in cell lysates” value is listed as “negligible effect”. Besides, the CA-IX protein expression entry in test [2] (CAL-62, 50 μM, 48 h, hypoxia) was “significantly downregulated”.

The compound `C=CCc1ccc(O)c(-c2ccc(O)c(CC=C)c2)c1` [honokiol] returned a Kd at human SIRT3 [3] of 40 to 47 µM.

For the compound `CCOC(=O)C1=CN(C(=O)c2cc(OC)c(OC)c(OC)c2)C=C(C(=O)OCC)C1c1ccccc1` [Compound 3], the GDH activation entry in test [1] is listed as “around 175%”. This compound also registered a Kd on human SIRT3 [3] of 40 to 47 µM. In addition, the SIRT3 activation entry on human SIRT3 [4] is “over 400%”.

With `c1cncc(-c2cnn[nH]2)c1` [3-TYP, reference compound], the “acetylation levels of both K68 and K122 residues of MnSOD” value in test [5] and in test [7] was “markedly increased” in each case. The “HIF-1α, EPAS-1, and CA-IX protein expression” value in test [6] was “did not show any activity”; in test [2] (CAL-62, hypoxia, negative control SIRT3 inhibitor), “negligible effects”.
